Converted amounts (≈) assume the structure as drawn.
Legend:
[1] = 1-octanol/aqueous buffer distribution coefficient, logP of the compound at pH 7.4; format: physicochemical
[2] = system: Candida parapsilosis; experiment: Antifungal activity against Candida parapsilosis ATCC 22019 assessed as reduction in fungal growth incubated for 24 hrs by CLSI based serial microbroth dilution method; format: functional; details: Lodderomyces parapsilosis
[3] = system: Candida parapsilosis; experiment: Antifungal activity against Candida parapsilosis ATCC 22019 assessed as reduction in fungal growth incubated for 48 hrs by CLSI based serial microbroth dilution method; format: functional; details: Lodderomyces parapsilosis
[4] = system: Candida albicans; experiment: Antifungal activity against Candida albicans ATCC 24433 assessed as reduction in fungal growth incubated for 24 hrs by CLSI based serial microbroth dilution method; format: functional
[5] = system: Candida albicans; experiment: Antifungal activity against Candida albicans ATCC 24433 assessed as reduction in fungal growth incubated for 48 hrs by CLSI based serial microbroth dilution method; format: functional
[6] = system: Candida albicans; experiment: Antifungal activity against Candida albicans 8R assessed as reduction in fungal growth incubated for 24 hrs by CLSI based serial microbroth dilution method; format: functional
[7] = system: Candida albicans; experiment: Antifungal activity against Candida albicans 8R assessed as reduction in fungal growth incubated for 48 hrs by CLSI based serial microbroth dilution method; format: functional
[8] = system: Candida albicans; experiment: Antifungal activity against Candida albicans CBS 8837 assessed as reduction in fungal growth incubated for 24 hrs by CLSI based serial microbroth dilution method; format: functional
[9] = system: Candida albicans; experiment: Antifungal activity against Candida albicans CBS 8837 assessed as reduction in fungal growth incubated for 48 hrs by CLSI based serial microbroth dilution method; format: functional
[10] = system: Candida albicans; experiment: Antifungal activity against Candida albicans 604M assessed as reduction in fungal growth incubated for 24 hrs by CLSI based serial microbroth dilution method; format: functional
[11] = system: Candida albicans; experiment: Antifungal activity against Candida albicans 604M assessed as reduction in fungal growth incubated for 48 hrs by CLSI based serial microbroth dilution method; format: functional
[12] = system: Candida tropicalis; experiment: Antifungal activity against Candida tropicalis 3019 assessed as reduction in fungal growth incubated for 24 hrs by CLSI based serial microbroth dilution method; format: functional
[13] = system: Candida tropicalis; experiment: Antifungal activity against Candida tropicalis 3019 assessed as reduction in fungal growth incubated for 48 hrs by CLSI based serial microbroth dilution method; format: functional
[14] = system: Pichia kudriavzevii; experiment: Antifungal activity against Candida krusei 432M assessed as reduction in fungal growth incubated for 24 hrs by CLSI based serial microbroth dilution method; format: functional
[15] = system: Pichia kudriavzevii; experiment: Antifungal activity against Candida krusei 432M assessed as reduction in fungal growth incubated for 48 hrs by CLSI based serial microbroth dilution method; format: functional
[16] = system: Cryptococcus neoformans; experiment: Antifungal activity against Cryptococcus neoformans assessed as reduction in fungal growth incubated for 24 hrs by CLSI based serial microbroth dilution method; format: functional
[17] = system: Cryptococcus neoformans; experiment: Antifungal activity against Cryptococcus neoformans assessed as reduction in fungal growth incubated for 48 hrs by CLSI based serial microbroth dilution method; format: functional
[18] = system: Aspergillus niger; experiment: Antifungal activity against Aspergillus niger 37a assessed as reduction in fungal growth incubated for 24 hrs by CLSI based serial microbroth dilution method; format: functional
[19] = system: Aspergillus niger; experiment: Antifungal activity against Aspergillus niger 37a assessed as reduction in fungal growth incubated for 48 hrs by CLSI based serial microbroth dilution method; format: functional
[20] = system: Microsporum canis; experiment: Antifungal activity against Microsporum canis B-200 assessed as reduction in fungal growth incubated for 24 hrs by CLSI based serial microbroth dilution method; format: functional
[21] = system: Microsporum canis; experiment: Antifungal activity against Microsporum canis B-200 assessed as reduction in fungal growth incubated for 48 hrs by CLSI based serial microbroth dilution method; format: functional
[22] = system: Cyberlindnera jadinii; experiment: Antifungal activity against Candida utilis 84 assessed as reduction in fungal growth incubated for 24 hrs by CLSI based serial microbroth dilution method; format: functional; details: Williopsis jadinii
[23] = system: Cyberlindnera jadinii; experiment: Antifungal activity against Candida utilis 84 assessed as reduction in fungal growth incubated for 48 hrs by CLSI based serial microbroth dilution method; format: functional; details: Williopsis jadinii
[24] = system: Trichophyton rubrum; experiment: Antifungal activity against Trichophyton rubrum 2002 assessed as reduction in fungal growth incubated for 24 hrs by CLSI based serial microbroth dilution method; format: functional
[25] = system: Trichophyton rubrum; experiment: Antifungal activity against Trichophyton rubrum 2002 assessed as reduction in fungal growth incubated for 48 hrs by CLSI based serial microbroth dilution method; format: functional
[26] = system: Nakaseomyces glabratus; experiment: Antifungal activity against Candida glabrata 61L assessed as reduction in fungal growth incubated for 24 hrs by CLSI based serial microbroth dilution method; format: functional
[27] = system: Nakaseomyces glabratus; experiment: Antifungal activity against Candida glabrata 61L assessed as reduction in fungal growth incubated for 48 hrs by CLSI based serial microbroth dilution method; format: functional

With `O=c1c2sc(=S)n(-c3ccc(F)cc3)c2ncn1CC(O)(Cn1cncn1)c1ccc(F)cc1F` (stereo not drawn) the logD [1] was 0.47.

`Cc1ccc(-n2c(=S)sc3c(=O)n(CC(=O)NCC(O)(Cn4cncn4)c4ccc(F)cc4F)cnc32)cc1` (stereo not drawn) gave a logD [1] of 1.27.

Work on `Cc1ccc(-n2c(=S)sc3c(=O)n(CC(O)(Cn4cncn4)c4ccc(F)cc4F)cnc32)cc1` (stereo not drawn) yielded a logD [1] of 0.79.

Compound `O=c1c2sc(=S)n(-c3ccc(Cl)cc3)c2ncn1CCCN1CCN(CC(O)(Cn2cncn2)c2ccc(F)cc2F)CC1` (stereo not drawn) has an MIC [2] of 0.25 µg/mL (≈ 0.379 µM), an MIC [3] of 0.25 µg/mL (≈ 0.379 µM) and an MIC [4] of 16 µg/mL (≈ 24.3 µM). For the same compound, the MIC [5] was 32 µg/mL (≈ 48.5 µM), the MIC [6] was 32 µg/mL (≈ 48.5 µM) and the MIC [7] was 32 µg/mL (≈ 48.5 µM). The MIC [8] was 16 µg/mL (≈ 24.3 µM), the MIC [9] was 32 µg/mL (≈ 48.5 µM) and the MIC [10] was 32 µg/mL (≈ 48.5 µM). The MIC [11] was 32 µg/mL (≈ 48.5 µM), the MIC [12] was 8 µg/mL (≈ 12.1 µM) and the MIC [13] was 8 µg/mL (≈ 12.1 µM). For the same compound, the MIC [14] was 16 µg/mL (≈ 24.3 µM), the MIC [15] was 32 µg/mL (≈ 48.5 µM) and the MIC [16] was 32 µg/mL (≈ 48.5 µM). For the same compound, the MIC [17] was 32 µg/mL (≈ 48.5 µM), the MIC [18] was 32 µg/mL (≈ 48.5 µM) and the MIC [19] was 32 µg/mL (≈ 48.5 µM). It also gave an MIC [20] of 32 µg/mL (≈ 48.5 µM), an MIC [21] of 32 µg/mL (≈ 48.5 µM) and an MIC [22] of 2 µg/mL (≈ 3.03 µM). It also gave an MIC [23] of 2 µg/mL (≈ 3.03 µM), an MIC [24] of 16 µg/mL (≈ 24.3 µM) and an MIC [25] of 16 µg/mL (≈ 24.3 µM). The MIC [26] was 2 µg/mL (≈ 3.03 µM) and the MIC [27] was 32 µg/mL (≈ 48.5 µM).

Compound `O=C(Cn1cnc2c(sc(=S)n2-c2ccc(Cl)cc2)c1=O)NCC(O)(Cn1cncn1)c1ccc(F)cc1F` (stereo not drawn) has a logD [1] of 1.16.

`Cc1ccc(-n2c(=S)sc3c(=O)n(CCCN4CCN(CC(O)(Cn5cncn5)c5ccc(F)cc5F)CC4)cnc32)cc1` (stereo not drawn) showed a logD [1] of 4.1, an MIC [2] of 0.5 µg/mL (≈ 0.783 µM) and an MIC [3] of 0.5 µg/mL (≈ 0.783 µM). The MIC [4] was 16 µg/mL (≈ 25 µM), the MIC [5] was 32 µg/mL (≈ 50.1 µM) and the MIC [6] was 16 µg/mL (≈ 25 µM). The MIC [7] was 32 µg/mL (≈ 50.1 µM), the MIC [8] was 16 µg/mL (≈ 25 µM) and the MIC [9] was 32 µg/mL (≈ 50.1 µM). The MIC [10] was 32 µg/mL (≈ 50.1 µM), the MIC [11] was 32 µg/mL (≈ 50.1 µM) and the MIC [12] was 8 µg/mL (≈ 12.5 µM). The MIC [13] was 16 µg/mL (≈ 25 µM), the MIC [14] was 16 µg/mL (≈ 25 µM) and the MIC [15] was 32 µg/mL (≈ 50.1 µM). For the same compound, the MIC [16] was 64 µg/mL (≈ 100 µM), the MIC [17] was 64 µg/mL (≈ 100 µM) and the MIC [18] was 32 µg/mL (≈ 50.1 µM). It also gave an MIC [19] of 32 µg/mL (≈ 50.1 µM), an MIC [20] of 32 µg/mL (≈ 50.1 µM) and an MIC [21] of 32 µg/mL (≈ 50.1 µM). The MIC [22] was 4 µg/mL (≈ 6.26 µM), the MIC [23] was 4 µg/mL (≈ 6.26 µM) and the MIC [24] was 32 µg/mL (≈ 50.1 µM). For the same compound, the MIC [25] was 32 µg/mL (≈ 50.1 µM), the MIC [26] was 2 µg/mL (≈ 3.13 µM) and the MIC [27] was 32 µg/mL (≈ 50.1 µM).

For `O=C(Cn1cnc2c(sc(=S)n2-c2ccc(F)cc2)c1=O)NCC(O)(Cn1cncn1)c1ccc(F)cc1F` (stereo not drawn), the logD [1] was 0.79.

— ChEMBL document CHEMBL4819051, “Synthesis and antifungal activity of new hybrids thiazolo[4,5-d]pyrimidines with (1H-1,2,4)triazole” (Bioorg Med Chem Lett, 2021)
